Measured values reported in PubChem BioAssay AID1963958 (Molecular Pharmacology Branch, DTP, NCI, 2024).

Test system: MDA-MB-231 multicell spheroids, viability
Assay: Anticancer human tumor MDA-MB-231 cell line growth inhibition [PI3K];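 note: spheroids exposed to agents for seven days before reading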;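 for viability, T/C: percent of vehicle control luminescence with DMSO treated spheroids as 100%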
Details: for IC50: curve of first compound; for viability, T/C: stronger effect = lower value; active = viability on the fitted dose curve at most 10% of control; inactive = the rest
Text: Combinatorial screen of targeted agents with the PI3K inhibitors inavolisib, alpelisib, duvelisib, and copanlisib in multi-cell type tumor spheroids
A high-throughput screen of multi-cell type tumor spheroids was designed to identify active combinations of targeted small molecules and PI3K pathway inhibitors. Complex spheroids include a stromal component modeled by human endothelial cells (HUVEC) and fibroblasts modeled by human mesenchymal stem cells (MSCs). The concentration ranges selected for each drug and investigational agent were based upon clinically achievable concentrations if the clinical Cmax of the agent was known.
Compounds. The drugs and investigational agents: inavolisib (NSC800729), alpelisib (NSC765974), duvelisib (NSC772469), copanlisib (NSC816437), ipatasertib (NSC767898), afuresertib (NSC778305), talazoparib (NSC767125), sapanisertib (NSC764658), selumetinib (NSC741078), tovorafenib (DAY101, NSC766906), vemurafenib (NSC761431), ravoxertinib (NSC781343), sotorasib (NSC818433), MRTX1133 (NSC 836407), abemaciclib (NSC 768073), palbociclib (NSC758247), venetoclax (NSC 766270), SY5609 (NSC837396), enzalutamide (NSC755605), and darolutamide (NSC825331), were obtained from the National Cancer Institute (NCI) Developmental Therapeutics Program Chemical Repository. The FDA-approved anticancer drug set is available from the NCI Developmental Therapeutics Program. […] The stock solutions were prepared in dimethyl sulfoxide (DMSO, Sigma-Aldrich, St. Louis, MO, cat. D2650) at 800-fold the tested concentration and stored at -70 degrees C prior to their use. All drugs and investigational agents were tested over a range starting from a high concentration at or near the clinical Cmax and decreasing in half-log increments. If the clinical Cmax for an agent had not been determined, the highest concentration tested was 10 microM.
Cell Culture. All cells were maintained in an incubator at 37 degrees C and 5% CO2 with 95% humidity. The PDC lines were cultured according to standard operating procedures established by the NCI PDMR (https://pdmr.cancer.gov/sops/default.htm). All PDCs were thawed and cultured in Matrigel-coated flasks prepared with a working solution of 1X Ham's F-12 nutrient mix, without supplementation (Invitrogen, Waltham, MA, cat. 11765054), 100 U/mL penicillin-streptomycin (Invitrogen, cat. 15140122), and 2.5% Matrigel (Corning Inc., Corning, NY, cat. 354248) for the first three passages. The 354836-022-R-J1-PDC, 475296-252-R-J1-PDC, and 997726-040-R-J2-PDC lines were cultured in 6A media, which includes advanced DMEM/F-12 (Thermo Fisher Scientific, cat. 12634028), 10 mM HEPES (Thermo Fisher Scientific, cat. 15630080), 1X GlutaMAX supplement (Thermo Fisher Scientific, cat. 35050061), 0.1 mg/mL primocin (InvivoGen, San Diego, CA, cat. ant-pm-2), 10% defined fetal bovine serum, heat inactivated (HyClone Laboratories Inc., Logan, UT, cat. SH30070.03HI), 50% L-WRN conditioned media (ATCC, cat. CRL-3276), 1.25 mM N-Acetyl-L-cysteine (Sigma-Aldrich, cat. A9165), 10 mM nicotinamide (Sigma-Aldrich, cat. N0636), 1X B-27 supplement (Thermo Fisher Scientific, cat. 17504044), 1X N-2 supplement (Thermo Fisher Scientific, cat. 17502048), and 10 microM Y-27632 dihydrochloride (Tocris Bioscience, Bristol, United Kingdom, cat. 1254). The 624824-186-R-J2-PDC line was cultured in 6C/Colon 1B media, which includes all 6A media components plus 50 ng/mL human EGF recombinant protein (Thermo Fisher Scientific, cat. PHG0311). […]

[1] = second compound 0.00316 µM, first compound 0.0316 µM
[2] = second compound 0.00316 µM, first compound 0.1 µM
[3] = second compound 0.00316 µM, first compound 0.316 µM
[4] = second compound 0.00316 µM, first compound 1 µM
[5] = second compound 0.00316 µM, first compound 3.16 µM
[6] = second compound 0.00316 µM, first compound 10 µM
[7] = second compound 0.01 µM, first compound 0.0316 µM
[8] = second compound 0.01 µM, first compound 0.1 µM
[9] = second compound 0.01 µM, first compound 0.316 µM
[10] = second compound 0.01 µM, first compound 1 µM
[11] = second compound 0.01 µM, first compound 3.16 µM
[12] = second compound 0.01 µM, first compound 10 µM
[13] = second compound 0.0316 µM, first compound 0.0316 µM
[14] = second compound 0.0316 µM, first compound 0.1 µM
[15] = second compound 0.0316 µM, first compound 0.316 µM
[16] = second compound 0.0316 µM, first compound 1 µM
[17] = second compound 0.0316 µM, first compound 3.16 µM
[18] = second compound 0.0316 µM, first compound 10 µM
[19] = second compound 0.1 µM, first compound 0.0316 µM
[20] = second compound 0.1 µM, first compound 0.1 µM
[21] = second compound 0.1 µM, first compound 0.316 µM
[22] = second compound 0.1 µM, first compound 1 µM
[23] = second compound 0.1 µM, first compound 3.16 µM
[24] = second compound 0.1 µM, first compound 10 µM
[25] = second compound 0.316 µM, first compound 0.0316 µM
[26] = second compound 0.316 µM, first compound 0.1 µM
[27] = second compound 0.316 µM, first compound 0.316 µM
[28] = second compound 0.316 µM, first compound 1 µM
[29] = second compound 0.316 µM, first compound 3.16 µM
[30] = second compound 0.316 µM, first compound 10 µM
[31] = second compound 1 µM, first compound 0.0316 µM
[32] = second compound 1 µM, first compound 0.1 µM
[33] = second compound 1 µM, first compound 0.316 µM
[34] = second compound 1 µM, first compound 1 µM
[35] = second compound 1 µM, first compound 3.16 µM
[36] = second compound 1 µM, first compound 10 µM

CC1(C)CCC(CN2CCN(c3ccc(C(=O)NS(=O)(=O)c4ccc(NCC5CCOCC5)c([N+](=O)[O-])c4)c(Oc4cnc5[nH]ccc5c4)c3)CC2)=C(c2ccc(Cl)cc2)C1 + CC(Nc1ccc2c(c1)OCCn1cc(N3C(=O)OCC3C(F)F)nc1-2)C(N)=O
6.9 µM: IC50 (second compound 0.00316 µM)
5.45 µM: IC50 (second compound 0.1 µM)
inactive: viability, T/C [1] 95.8% | viability, T/C [2] 92.2% | viability, T/C [3] 104% | viability, T/C [4] 111% | viability, T/C [5] 105% | viability, T/C [6] 25.5% | viability, T/C [7] 94.1% | viability, T/C [8] 99.1% | viability, T/C [9] 94.9% | viability, T/C [10] 96.4% | viability, T/C [11] 92.2% | viability, T/C [12] 31.8% | viability, T/C [13] 83.8% | viability, T/C [14] 77.5% | viability, T/C [15] 79.3% | viability, T/C [16] 85.8% | viability, T/C [17] 86.6% | viability, T/C [18] 29.5% | viability, T/C [19] 77.2% | viability, T/C [20] 69.1% | viability, T/C [21] 71.4% | viability, T/C [22] 69.6% | viability, T/C [23] 69.8% | viability, T/C [24] 28.2% | viability, T/C [25] 64% | viability, T/C [26] 64.6% | viability, T/C [27] 61.1% | viability, T/C [28] 66.4% | viability, T/C [29] 70.6% | viability, T/C [30] 21.4% | viability, T/C [31] 64.9% | viability, T/C [32] 60.2% | viability, T/C [33] 60.8% | viability, T/C [34] 60.2% | viability, T/C [35] 65.5% | viability, T/C [36] 18.3%
7.07 µM: IC50 (second compound 0.01 µM)
4.36 µM: IC50 (second compound 1 µM)
4.72 µM: IC50 (second compound 0.316 µM)
6.41 µM: IC50 (second compound 0.0316 µM)

C[C@@H](NC(=O)c1ncnc(N)c1Cl)c1ncc(C(=O)Nc2cc(C(F)(F)F)c(Cl)cn2)s1 + CC(Nc1ccc2c(c1)OCCn1cc(N3C(=O)OCC3C(F)F)nc1-2)C(N)=O
3.49 µM: IC50 (second compound 0.0316 µM)
> 10 µM: IC50 (second compound 0.00316 µM) | IC50 (second compound 0.01 µM)
1.36 µM: IC50 (second compound 0.1 µM)
0.625 µM: IC50 (second compound 0.316 µM)
0.337 µM: IC50 (second compound 1 µM)
inactive: viability, T/C [1] 119% | viability, T/C [2] 93% | viability, T/C [3] 86.7% | viability, T/C [4] 86.9% | viability, T/C [5] 73.9% | viability, T/C [6] 50.6% | viability, T/C [7] 111% | viability, T/C [8] 94.2% | viability, T/C [9] 81.7% | viability, T/C [10] 72.1% | viability, T/C [11] 68.2% | viability, T/C [12] 49% | viability, T/C [13] 91.3% | viability, T/C [14] 75.1% | viability, T/C [15] 66.1% | viability, T/C [16] 62.7% | viability, T/C [17] 52.3% | viability, T/C [18] 40.8% | viability, T/C [19] 83% | viability, T/C [20] 66.4% | viability, T/C [21] 58.8% | viability, T/C [22] 54.1% | viability, T/C [23] 48.3% | viability, T/C [24] 32.6% | viability, T/C [25] 77.8% | viability, T/C [26] 66.3% | viability, T/C [27] 54.8% | viability, T/C [28] 45.6% | viability, T/C [29] 41% | viability, T/C [30] 33% | viability, T/C [31] 67.4% | viability, T/C [32] 55.4% | viability, T/C [33] 49.5% | viability, T/C [34] 44.8% | viability, T/C [35] 38.4% | viability, T/C [36] 28.8%

Cn1ncnc1[C@H]1c2n[nH]c(=O)c3cc(F)cc(c23)N[C@@H]1c1ccc(F)cc1 + CC(Nc1ccc2c(c1)OCCn1cc(N3C(=O)OCC3C(F)F)nc1-2)C(N)=O
0.074 µM: IC50 (second compound 0.1 µM)
inactive: viability, T/C (second compound 0.00316 µM, first compound 0.000316 µM) 99.1% | viability, T/C (second compound 0.00316 µM, first compound 0.001 µM) 93.9% | viability, T/C (second compound 0.00316 µM, first compound 0.00316 µM) 97.8% | viability, T/C (second compound 0.00316 µM, first compound 0.01 µM) 87.8% | viability, T/C [1] 82.4% | viability, T/C [2] 74.5% | viability, T/C (second compound 0.01 µM, first compound 0.000316 µM) 90.7% | viability, T/C (second compound 0.01 µM, first compound 0.001 µM) 95% | viability, T/C (second compound 0.01 µM, first compound 0.00316 µM) 81.8% | viability, T/C (second compound 0.01 µM, first compound 0.01 µM) 84.4% | viability, T/C [7] 78.2% | viability, T/C [8] 78.3% | viability, T/C (second compound 0.0316 µM, first compound 0.000316 µM) 78.1% | viability, T/C (second compound 0.0316 µM, first compound 0.001 µM) 86.7% | viability, T/C (second compound 0.0316 µM, first compound 0.00316 µM) 75.4% | viability, T/C (second compound 0.0316 µM, first compound 0.01 µM) 73.5% | viability, T/C [13] 63.7% | viability, T/C [14] 58.9% | viability, T/C (second compound 0.1 µM, first compound 0.000316 µM) 70.8% | viability, T/C (second compound 0.1 µM, first compound 0.001 µM) 69.7% | viability, T/C (second compound 0.1 µM, first compound 0.00316 µM) 65% | viability, T/C (second compound 0.1 µM, first compound 0.01 µM) 62.4% | viability, T/C [19] 50.5% | viability, T/C [20] 50.1% | viability, T/C (second compound 0.316 µM, first compound 0.000316 µM) 62.7% | viability, T/C (second compound 0.316 µM, first compound 0.001 µM) 64.3% | viability, T/C (second compound 0.316 µM, first compound 0.00316 µM) 59.4% | viability, T/C (second compound 0.316 µM, first compound 0.01 µM) 56.9% | viability, T/C [25] 49.4% | viability, T/C [26] 47.7% | viability, T/C (second compound 1 µM, first compound 0.000316 µM) 63.2% | viability, T/C (second compound 1 µM, first compound 0.001 µM) 58% | viability, T/C (second compound 1 µM, first compound 0.00316 µM) 53.9% | viability, T/C (second compound 1 µM, first compound 0.01 µM) 51.6% | viability, T/C [31] 50% | viability, T/C [32] 45.4%
0.0176 µM: IC50 (second compound 1 µM)
0.0471 µM: IC50 (second compound 0.316 µM)
> 0.1 µM: IC50 (second compound 0.00316 µM) | IC50 (second compound 0.01 µM) | IC50 (second compound 0.0316 µM)
